Experimental findings from patent US12251373B2, “Compounds and methods of treating retinal degeneration” (CASE WESTERN RESERVE UNIVERSITY, priority 2017, dated 2025) are described below.

Series [1] concerns C57BL/6 mice. Briefly: Retinoid cycle analyses (11-cis-retinyl oxime after bleaching). The settings on record: 200 mg kg−1 bw i.p., compared to DMSO. The series is classed as in vivo, mouse. The procedure: To test if treatment with YC-001 affects visual pigment regeneration, we quantified the 11-cis-retinyl oxime extracted from retinas of C57BL/6 mice after different periods of dark adaptation following exposure to bright light. Mice at 6 weeks of age were administered YC-001 at 200 mg kg^−1 bw via i.p. injection. At 30 min following YC-001 administration, eyes were dilated with 1% tropicamide. Mice then were anesthetized with a cocktail containing 20 mg mL^−1 of ketamine and 1.75 mg mL^−1 of xylazine at a dose of 4 μL g^−1 bw. Anesthetized mice were exposed to bright light with an intensity of 10,000 lux for 10 min to bleach about 90% of the rhodopsin pigment. Mice then were returned to the dark for recovery. Animals then were euthanized at 0, 2, 4, 6 or 24 h after bleaching and recovery in the dark, and their eyes were removed and homogenized in 1 mL of 1:1 PBS:ethanol mixture (v/v) containing 40 mM hydroxylamine. […] 11-cis-Retinyl oxime released from the regenerated rhodopsin pigments were separated on an Agilent Sil column (5 μm, 4.6×250 mm) with an isocratic flow of 10% ethyl acetate in hexanes (1.5 mL min^−1) and detected at 325 nm. Amounts of 11-cis-retinyl oximes per eye were quantified by normalizing the peak area to an 11-cis-retinyl oxime standard. 11-cis-Retinyl oximes were quantified in three eye samples per condition, and the means and s.d.s were calculated.

The target of series [2] is T1, rod opsin (Bos taurus, UniProt P02699).
T1 construct: ROS membranes were isolated from bovine retinas under dim red light; from tissue; host or cells: bovine retina rod outer segment (ROS) membranes, bleached with hydroxylamine
T1 sequence (P02699 whole entry): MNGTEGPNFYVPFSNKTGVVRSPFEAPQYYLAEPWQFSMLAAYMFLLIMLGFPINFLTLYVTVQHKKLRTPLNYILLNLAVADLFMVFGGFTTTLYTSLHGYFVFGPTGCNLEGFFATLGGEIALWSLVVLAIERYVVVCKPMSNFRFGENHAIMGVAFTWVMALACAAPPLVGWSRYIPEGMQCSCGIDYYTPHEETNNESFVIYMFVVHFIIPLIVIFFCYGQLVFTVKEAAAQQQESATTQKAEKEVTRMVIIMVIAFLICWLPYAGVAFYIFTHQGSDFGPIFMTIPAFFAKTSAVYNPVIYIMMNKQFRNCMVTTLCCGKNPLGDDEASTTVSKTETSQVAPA
Put plainly: Raman spectroscopy of rod opsin crystal soaked with compound. The class given is binding, bovine. As to conditions: Raman difference spectrum, FIG. 4f. The method, then:
Bleached ROS membranes bearing opsin were solubilized with either 20 mM BTP, pH 7.5, or 50 mM MES, pH 6.4, together with 130 mM NaCl, 1 mM MgCl2, 10% sucrose, and 1% n-octyl-β-D-glucopyranoside (OG) for 1 h at 4° C. Insoluble debris was removed by centrifugation at 16,000 g for 5 min at 4° C. Crystallization screens were performed by the sparse matrix crystallization method based upon previously published crystallization conditions for rhodopsin and opsin. Each hanging drop was prepared by mixing equal volumes of solubilized opsin and a reservoir solution containing 3.0-3.6 M ammonium sulfate in 0.05-0.1 M sodium acetate buffer, pH 5.2-5.6. Crystals appeared within 2-5 days at 4° C. and were analyzed directly by Raman spectroscopy.
Here, we used Raman microscopy to test if YC-001 binds rod opsin in a single crystal. A rod opsin crystal was transferred into 4.5 μL of fresh reservoir solution on a siliconized glass coverslip and transferred into a hanging drop crystallization tray where the well contained 1 mL of the same solution. An 80 mW, 647.1 nm Kr^+ laser beam (Innova 70 C, Coherent, Palo Alto, CA, USA) was focused on the rod opsin crystal with a 20× objective. The Raman spectrum of the rod opsin crystal was accumulated over 100×1 s. […]

Series [3] concerns C57BL/6 mice. Put plainly: Scotopic ERG recovery after bleaching. As to conditions: 200 mg kg−1 i.p., compared to DMSO. The class given is in vivo, mouse. The procedure:
C57BL/6 mice at 2 months of age were placed in the dark overnight. Mice then were divided into a YC-001-treated group, a DMSO-treated group, and an unbleached group. Each group contained 3 mice (2 females and 1 male). Mice were given a single dose of YC-001 at 200 mg kg^−1 by i.p. injection. The DMSO group was treated with an equivalent volume of DMSO compared to the YC-001-treated group. One h after YC-001 or DMSO administration, mouse eyes were treated with 1% tropicamide eye drops for pupil dilation, exposed to 2,000 lux of illumination for 5 min and returned to the dark. Mice were anesthetized after a bleach for scotopic ERG recordings. Briefly, every 5 min a single-flash scotopic ERG at 1.6 cd·s·m^−2 was recorded until 1 h after a bleach. A-wave amplitudes of each ERG recording were measured, averaged from three animals, and plotted as a function of time and fitted to a linear function using Origin software version 8.1.

A short description of series [4]: Pharmacokinetics of YC-001 in mouse plasma. The series is classed as in vivo. The procedure: C57BL/6J mice ranging from 8 to 12 weeks of age were purchased from Jackson Labs. For administration, YC-001 was dissolved in DMSO at 160 mg mL^−1. To obtain the blood clearance curve for YC-001, each animal was treated by intraperitoneal injection of YC-001 at 200 mg kg^−1 bw. After administration, blood was collected at 5, 10, 15, 20, 30, 45, 60 and 90 min from the orbital sinus and dropped into K2EDTA blood collection tubes (FisherScientific). Mice were anesthetized with a ketamine/xylazine cocktail two min before blood collection. The blood samples were then incubated at 4° C. for 2 h before centrifugation at 1,800×g for 20 min to collect the supernatant that was the plasma. Plasma was mixed with twice the volume of methanol and then stored at −80° C. YC-001 was extracted from the samples (300 to 600 μL) with 0.6 mL chloroform. The chloroform fraction was collected, dried, and the extracted organic compounds were dissolved in 0.25 mL of methanol. One hundred-μL of each sample was injected onto an Eclipse XDB-C18 column (4.6×150 mm, 5 μm) and YC-001 was detected and quantified as described in the section Metabolic stability of YC-001.

On to `O=C1OCC(c2ccc(Cl)s2)=C1c1cccs1` [YC-001], for which the “recovery of 11-cis-retinyl oxime after photobleaching” value in series [1] is recorded as “little difference”. For the same compound, the “mode of binding to rod opsin” value in series [2] is reported as “non-covalent binding”. Further, in series [3], the “scotopic ERG a-wave recovery after bleach” value is reported as “did not inhibit rhodopsin regeneration”. In addition, in series [4] (0.693/T1/2), the “elimination rate constant (Ke)” value was 0.0201 min⁻¹. Further, the “volume of distribution (Vd)” value in series [4] (Dose/C0) is 27.5 L kg−1 bw. For the same compound, in series [4] (Ke×Vd), the Clearance came out at 0.552 L min−1 kg−1 bw.
